Measurements: article PMC6407204, “Oral administration of the cannabigerol derivative VCE-003.2 promotes subventricular zone neurogenesis and protects against mutant huntingtin-induced neurodegeneration” (Translational Neurodegeneration, 2019)

Experiments:
[1] = Microsomal metabolic stability; details: human, microsomes, pH 7.4
Procedure: The final incubation volume was 25 μL. […] The reactions were stopped by the addition of 50 μL methanol containing internal standard at the appropriate time points. The incubation plates were centrifuged at 2500 rpm for 20 min at 4 °C to precipitate the protein. Following protein precipitation, the sample supernatants were analyzed using LC-MS/MS. From a plot of ln peak area ratio (compound peak area/internal standard peak area) against time, the gradient of the line was determined. Subsequently, half-life and intrinsic clearance was calculated using the equations below: Elimination rate constant (k) = (− gradient).

[2] = test system: murine models of HD; design: method as in PMID 25252936; details: 3-nitropropionic acid injection model and R6/2 model, via PPARγ; cited from earlier work
[3] = test system: S. typhimurium TA100; experiment: AMES reverse mutation assay, TA100; format: cell-based; details: TA100, S9 yes
Procedure: (§1) Supplementary file 40035_2019_148_MOESM4_ESM.pdf: Additional file 4: AMES Data Summary. AMES Experimental Procedure. Approximately ten million bacteria are exposed in triplicate to VCE-003-.2 (7.8, 15.6, 31.3, 62.5, 125 and 250 μg/ml), a negative control (vehicle) and a positive control for 90 min in medium containing a low concentration of histidine (sufficient for about 2 doublings). The cultures were then diluted into indicator medium lacking histidine and dispensed into 48 wells of a 384 well plate (micro-plate format, MPF). The plate was incubated for 48 h at 37 °C, and the number of wells showing growth were counted and compared to the vehicle control. An increase in the number of colonies of at least two-fold over baseline (mean + SD of the vehicle control) and a dose response indicates a positive response. […] Where indicated, S9 fraction from the livers of Aroclor 1254-treated rats was included in the incubation at a final concentration of 4.5%. An NADPH-regenerating system is also included to ensure a steady supply of reducing equivalents. The strains used in this study were S. typhimurium TA98 (hisD3052, rfa, uvrB/pKM10 for detection of frame-shift mutations) and S. typhimurium TA100 ([…], rfa, uvrB/pKM101 for detection of base-pair substitutions). VCE-003.2 was assessed for its mutagenic potential in the AMES reverse mutation assay. This test was performed in the absence and presence of S9 metabolic activation. […] The positive controls all behaved as expected. (PDF 568 kb)

[4] = test system: S. typhimurium TA98; experiment: AMES reverse mutation assay, TA98; format: cell-based; details: TA98, S9 yes
Procedure: as §1

With `COc1ccc2c(c1)[C@]13CCCC[C@@H]1[C@H](C2)N(C)CC3` [Dextrom Etorphan, dextromethorphan] the half-life [1] was 58.1 min and the microsomal CLint [1] was 23.9 µL/min/mg.

For `CCCCCc1cc(O)c(C/C=C(\C)CCC=C(C)C)c(O)c1` [CBG, Cannabigerol], the “motor symptoms, neuroinflammation and neurodegeneration in HD models” value [2] is given as “alleviates motor symptoms, neuroinflammation and neurodegeneration”, the half-life [1] is given as 13.4 min and the microsomal CLint [1] is given as 103 µL/min/mg.

With `Nc1cccc2cc3ccccc3cc12` [aminoanthracene, reference compound] the “AMES Result” value [3] was “Positive” and the “AMES Result” value [4] was “Positive”.
